Measured values from publication PMC11010885, “Functional Analysis and Tissue-Specific Expression of Calcitonin and CGRP with RAMP-Modulated Receptors CTR and CLR in Chickens” (Animals : an Open Access Journal from MDPI, 2024).

Assays:
Type in all cases: cell-based
chicken CTR [1] = test: cAMP/PKA pGL3-CRE-luciferase reporter assay, CTR + pcDNA in CHO cells
Procedure: (§1) Chinese hamster ovary (CHO) cells were cultured in Dulbecco’s modified Eagle’s medium (DMEM) supplemented with 10% (vol/vol) fetal bovine serum (HyClone, Logan, UT, USA), 100 U/mL penicillin G and 100 μg/mL streptomycin. The cells were maintained in a 90 mm culture dish (Nunc, Rochester, NY, USA) and incubated at 37 °C with 5% CO2. To investigate the signaling pathways associated with each receptor in CHO cells, three different reporter systems (pGL3-CRE-luciferase, pGL4-SRE-luciferase, and pGL3-NFAT-RE-luciferase) were utilized to monitor intracellular cAMP/PKA and MAPK/ERK signaling pathways and calcium mobilization of the activated receptors, respectively.
(§2) Prior to the transfection procedure, the cells were initially cultured in 6-well plates (Nunc, Rochester, NY, USA), maintaining a seeding density of approximately 300,000 cells per well. Upon achieving approximately 70% confluence, the cells underwent a co-transfection process. This procedure entailed the introduction of 700 ng of various luciferase reporter constructs (namely, pGL3-CRE-luciferase, pGL4-SRE-luciferase, or pGL3-NFAT-RE-luciferase) combined with 200 ng of a specific receptor plasmid (CTR or CLR) and 1000 ng of either RAMP1, RAMP2, RAMP3 expression plasmids, or alternatively, the empty pcDNA3.1 (+) vector. A volume of 5.7 μL of PEI MAX was used in 200 μL of buffer following the manufacturer’s protocol. After 24 h of incubation, the transfected CHO cells were subcultured in 96-well plates and passaged for an additional 24 h before peptide treatment. Then, the medium from the 96-well plates was removed, and the cells were treated with chicken CT/CGRP-containing medium (or untreated medium as a control) at concentrations ranging from 10^−12 M to 10^−6 M for 6 h. Subsequently, the cells were harvested for luciferase assays by lysing them in 1 × passive lysis buffer. To measure the luciferase activity of the cell lysate, 40 μL of luciferase assay reagent (Promega, Madison, WI, USA) was mixed with the cell lysate following the manufacturer’s instructions. The fluorescence activity of the luciferase in each treatment group was measured using a multimode microplate reader (TriStar LB941, Berthold Technologies, Bad Wildbad, Germany). Finally, the fluorescence activity of each treatment group was expressed as a relative increase ratio compared to the control group.

chicken CTR + RAMP1 [2] = test: cAMP/PKA pGL3-CRE-luciferase reporter assay, CTR + RAMP1 in CHO cells; settings: 10^−12 M to 10^−6 M, 6 h, mean ± SEM, n = 3, read-out: EC50, cAMP/PKA signaling pathway
Procedure: as §1
(§3) Prior to the transfection procedure, the cells were initially cultured in 6-well plates (Nunc, Rochester, NY, USA), maintaining a seeding density of approximately 300,000 cells per well. Upon achieving approximately 70% confluence, the cells underwent a co-transfection process. […] The fluorescence activity of the luciferase in each treatment group was measured using a multimode microplate reader (TriStar LB941, Berthold Technologies, Bad Wildbad, Germany). Finally, the fluorescence activity of each treatment group was expressed as a relative increase ratio compared to the control group.

chicken CTR + RAMP2 [3] = test: cAMP/PKA pGL3-CRE-luciferase reporter assay, CTR + RAMP2 in CHO cells; settings: 10^−12 M to 10^−6 M, 6 h, mean ± SEM, n = 3, read-out: EC50, cAMP/PKA signaling pathway
Procedure: as §1, §3

chicken CTR + RAMP3 [4] = test: cAMP/PKA pGL3-CRE-luciferase reporter assay, CTR + RAMP3 in CHO cells; settings: 10^−12 M to 10^−6 M, 6 h, mean ± SEM, n = 3, read-out: EC50, cAMP/PKA signaling pathway
Procedure: as §1, §3

chicken CLR [5] = test: cAMP/PKA pGL3-CRE-luciferase reporter assay, CLR + pcDNA in CHO cells
Procedure: as §1, §2

chicken CLR + RAMP1 [6] = test: cAMP/PKA pGL3-CRE-luciferase reporter assay, CLR + RAMP1 in CHO cells; settings: CLR + RAMP1, CHO cells, pGL3-CRE-luciferase, 10^−12 M to 10^−6 M, 6 h; mean ± SEM, n = 3; read-out: EC50, cAMP/PKA signaling pathway
Procedure: as §1
as §2, with “Subsequently, the cells were harvested for luciferase assays by lysing them in 1 × passive lysis buffer. To measure the luciferase activity of the cell lysate, 40 μL of luciferase assay reagent (Promega, Madison, WI, USA) was mixed with the cell lysate following the manufacturer’s instructions.” left out

chicken CLR + RAMP2 [7] = test: cAMP/PKA pGL3-CRE-luciferase reporter assay, CLR + RAMP2 in CHO cells; settings: 10^−12 M to 10^−6 M, 6 h, mean ± SEM, n = 3, read-out: EC50, cAMP/PKA signaling pathway
Procedure: as §1, §3

chicken CLR + RAMP3 = test: cAMP/PKA pGL3-CRE-luciferase reporter assay, CLR + RAMP3 in CHO cells; settings: 10^−12 M to 10^−6 M, 6 h, mean ± SEM, n = 3, read-out: EC50, cAMP/PKA signaling pathway
Procedure: as §1, §3

chicken CTR [8] = test: MAPK/ERK pGL4-SRE-luciferase reporter assay, CTR + pcDNA in CHO cells; settings: 10^−12 M to 10^−6 M, 6 h, mean ± SEM, n = 3, read-out: EC50, MAPK/ERK signaling pathway
Procedure: as §1, §3

chicken CTR + RAMP1 [9] = test: MAPK/ERK pGL4-SRE-luciferase reporter assay, CTR + RAMP1 in CHO cells; settings: 10^−12 M to 10^−6 M, 6 h, mean ± SEM, n = 3, read-out: EC50, MAPK/ERK signaling pathway
Procedure: as §1, §3

chicken CTR + RAMP2 [10] = test: MAPK/ERK pGL4-SRE-luciferase reporter assay, CTR + RAMP2 in CHO cells; settings: 10^−12 M to 10^−6 M, 6 h, mean ± SEM, n = 3, read-out: EC50, MAPK/ERK signaling pathway
Procedure: as §1, §3

chicken CTR + RAMP3 [11] = test: MAPK/ERK pGL4-SRE-luciferase reporter assay, CTR + RAMP3 in CHO cells; settings: 10^−12 M to 10^−6 M, 6 h, mean ± SEM, n = 3, read-out: EC50, MAPK/ERK signaling pathway
Procedure: as §1, §3

chicken CLR [12] = test: MAPK/ERK pGL4-SRE-luciferase reporter assay, CLR + pcDNA in CHO cells; settings: 10^−12 M to 10^−6 M, 6 h, mean ± SEM, n = 3, read-out: EC50, MAPK/ERK signaling pathway
Procedure: as §1, §3

chicken CLR + RAMP1 [13] = test: MAPK/ERK pGL4-SRE-luciferase reporter assay, CLR + RAMP1 in CHO cells; settings: 10^−12 M to 10^−6 M, 6 h, mean ± SEM, n = 3, read-out: EC50, MAPK/ERK signaling pathway
Procedure: as §1, §3

chicken CLR + RAMP2 [14] = test: MAPK/ERK pGL4-SRE-luciferase reporter assay, CLR + RAMP2 in CHO cells; settings: 10^−12 M to 10^−6 M, 6 h, mean ± SEM, n = 3, read-out: EC50, MAPK/ERK signaling pathway
Procedure: as §1, §3

calcitonin [CT]
EC50 (chicken CTR [1]; CTR + pcDNA, CHO cells, pGL3-CRE-luciferase, 10^−12 M to 10^−6 M, 6 h, mean ± SEM, n = 3, read-out: EC50, cAMP/PKA signaling pathway): 0.15 ± 0.04 nM | activation (cAMP production), in words (chicken CTR [1]; independent CTR): strongly activates | EC50 (chicken CTR + RAMP1 [2]): 0.77 ± 0.07 nM | EC50 (chicken CTR + RAMP2 [3]): 0.67 ± 0.1 nM | EC50 (chicken CTR + RAMP3 [4]): 0.44 ± 0.1 nM | EC50 (chicken CLR [5]; CLR + pcDNA, CHO cells, pGL3-CRE-luciferase, 10^−12 M to 10^−6 M, 6 h, mean ± SEM, n = 3, read-out: EC50, cAMP/PKA signaling pathway): 0.75 ± 0.21 nM | activation (cAMP production), in words (chicken CLR [5]; independent CLR): strongly activates | EC50 (chicken CLR + RAMP1 [6]): 3.3 ± 0.96 nM | EC50 (chicken CLR + RAMP2 [7]): 0.93 ± 0.15 nM | EC50 (chicken CLR + RAMP3): 1.27 ± 0.83 nM | EC50 (chicken CTR [8]): 0.15 ± 0.05 nM | EC50 (chicken CTR + RAMP1 [9]): 1.38 ± 0.24 nM | EC50 (chicken CTR + RAMP2 [10]): 2.09 ± 0.42 nM | EC50 (chicken CTR + RAMP3 [11]): 0.38 ± 0.13 nM | EC50 (chicken CLR [12]): 0.3 ± 0.12 nM | EC50 (chicken CLR + RAMP1 [13]): 0.89 ± 0.2 nM | EC50 (chicken CLR + RAMP2 [14]): 0.38 ± 0.09 nM
